As a reminder, the IC50 is the point on the concentration scale where inhibition reaches its midpoint.

Bounds are passed on as bounds.

T1 sequence (P36507 with tags, fused parts or gaps S222E/S226D): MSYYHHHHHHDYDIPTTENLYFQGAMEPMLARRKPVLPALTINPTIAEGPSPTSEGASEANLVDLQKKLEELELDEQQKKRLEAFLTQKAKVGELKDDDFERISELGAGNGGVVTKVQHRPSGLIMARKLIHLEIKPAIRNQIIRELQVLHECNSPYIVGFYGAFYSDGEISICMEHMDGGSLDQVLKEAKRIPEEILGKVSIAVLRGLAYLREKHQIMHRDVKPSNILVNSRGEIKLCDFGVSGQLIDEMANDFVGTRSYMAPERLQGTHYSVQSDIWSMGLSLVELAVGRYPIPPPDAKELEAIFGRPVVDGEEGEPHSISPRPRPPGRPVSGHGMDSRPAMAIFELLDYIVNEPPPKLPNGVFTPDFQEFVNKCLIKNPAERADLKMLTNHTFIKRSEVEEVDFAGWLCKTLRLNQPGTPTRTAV

This test has as its target T1, MEK2 (Homo sapiens, UniProt P36507, S222E/S226D).
T1 construct: 6-histidine tag (N); made in house; host or cells: Spodoptera frugiperda Sf9 (baculovirus) for MEK2; E. coli for ERK1
The experiment in a line: MEK2 inhibition assay, fluorescence polarization with IMAP beads (ERK1 / FI-Erktide substrate). It counts as biochemical. The settings on record: 4 nM MEK2, 25 nM ERK1, 400 μM ATP, 500 nM FI-Erktide, 1% DMSO, 22 min at room temperature; values given as ranges; read-out: IC50 of Exemplified Compounds Against MEK2. From the text: For MEK2, DNA encoding residues 1-400 (S222E/S226D) of the full-length sequence of the human enzyme may be amplified by PCR and cloned into pFastbac (Invitrogen), which incorporates a 6-histidine tag at the N-terminus. The two mutations, S222E and S226D, may be obtained by quick change PCR. SEQ ID NO: 3 corresponds to residues 1-400 with mutations S222E/S226D, and with the N-terminal 6-histidine tag and SEQ ID NO: 4 is the DNA sequence that was used to encode SEQ ID NO: 3.
Recombinant baculovirus incorporating the MEK1 and MEK2 constructs may be generated by transposition using the Bac-to-Bac system (Invitrogen). High-titer viral stocks may be generated by infection of Spodoptera frugiperda Sf9 cells; the expression of recombinant protein may be carried out by infection of Spodoptera frugiperda Sf9 (Invitrogen) in 5L Wave Bioreactors (Wave Biotech).
Recombinant protein may be isolated from cellular extracts by passage over ProBond resin (Invitrogen). Partially purified extracts of all MEK1 may then be further purified by high pressure liquid chromatography over a SEC2000 gel filtration resin. The purity of MEK1 and MEK2 proteins may be determined on denaturing SDS-PAGE gel. Purified MEK1 and MEK2 may then be concentrated to a final concentration of 3.4 mg/ml and 5.4 mg/ml, respectively. The proteins may be either stored at −78° C. in a buffer containing 50 mM TRIS-HCl pH 7.6, 250 mM NaCl, 0.1 mM EDTA and 0.125 mM TCEP or at −20° C. in the presence of glycerol (final concentration of glycerol at 50%).
The inhibitory properties of compounds relative to MEK1 or MEK2 may be determined using a black 384-well-plate format under the following reaction conditions: 50 mM HEPES pH 7.3, 10 mM NaCl, 10 mM MgCl2, 0.01% Brij35, 1 nM MEK1 or 4 nM MEK2, 25 nM ERK1, 400 μM ATP, 500 nM IPTTPITTYFFFK-5FAM-COOH (FI-Erktide), and 1% DMSO. Reaction product is determined quantitatively by fluorescent polarization using progressive IMAP beads from Molecular Devices.
The assay reaction may be initiated as follows: 2 μl of the mixture of 1.5 μM FI-Erktide and 75 nM ERK with 2 μl of inhibitor (2 fold serial dilutions for 11 data points for each inhibitor) containing 3% DMSO were added to each well of the plate, followed by the addition of 2 μl of the mixture of 3 nM MEK1 or 12 nM MEK2 and 1200 μM ATP to initiate the reaction (final enzyme concentration was 1 nM for MEK1 or 4 nM for MEK2). The reaction mixture may then be incubated at room temperature for 22 min, and quenched and developed by addition of 20 μl of 1:200 dilution of progressive IMAP beads (Molecular Devices) in 80% buffer A, 20% bufferB and 0.003% Tween 20. Fluorescence polarization of the resulting reaction mixtures may be measured after a 1 hour incubation at room temperature.
IC50 values may be calculated by non-linear curve fitting of the compound concentrations and fluorescence polarization signal to the standard IC50 equation.
In general terms: Fluorescence polarisation rises when a labelled molecule tumbles more slowly, as on binding a larger partner.
Regarding `Cn1c(Nc2ccc(I)cc2F)c(C(=O)NOCC[C@H](O)CO)c(=O)n(C)c1=O` [Example 34, (S)-N-(3,4-Dihydroxybutoxy)-6-(2-fluoro-4-iodophenylamino)-1,3-dimethyl-2,4-dioxo-1,2,3,4-tetrahydropyrimidine-5-carboxamide], the IC50 is 2500 to 25000 nM.

On to `Cc1cc(I)ccc1Nc1c(C(=O)NOCCO)c(=O)n(C)c(=O)n1C` [Example 35, N-(2-Hydroxyethoxy)-6-(4-iodo-2-methylphenylamino)-1,3-dimethyl-2,4-dioxo-1,2,3,4-tetrahydropyrimidine-5-carboxamide], for which the IC50 was at most 500 nM.

Turning to `Cn1c(Nc2ccc(I)c(F)c2F)c(C(=O)NOC[C@H](O)CO)c(=O)n(C)c1=O` [Example 36, (R)-6-(2,3-Difluoro-4-iodophenylamino)-N-(2,3-dihydroxypropoxy)-1,3-dimethyl-2,4-dioxo-1,2,3,4-tetrahydropyrimidine-5-carboxamide], the 50% inhibitory concentration (IC50) fell in the range of 501 to 2500 nM.

As to `Cn1c(Nc2ccc(I)cc2F)c(C(=O)NOC[C@@H](O)CO)c(=O)n(C)c1=O` [Example 37, (S)-N-(2,3-Dihydroxypropoxy)-6-(2-fluoro-4-iodophenylamino)-1,3-dimethyl-2,4-dioxo-1,2,3,4-tetrahydropyrimidine-5-carboxamide], the IC50 was at most 500 nM.

As for `Cc1cc(I)ccc1Nc1c(C(=O)NOC[C@H](O)CO)c(=O)n(C)c(=O)n1C` [Example 38, (R)-N-(2,3-Dihydroxypropoxy)-6-(4-iodo-2-methylphenylamino)-1,3-dimethyl-2,4-dioxo-1,2,3,4-tetrahydropyrimidine-5-carboxamide], the IC50 is at most 500 nM.

Take `Cn1c(Nc2ccc(I)cc2Cl)c(C(=O)NOC[C@@H](O)CO)c(=O)n(C)c1=O` [Example 39, (S)-6-(2-chloro-4-iodophenylamino)-N-(2,3-dihydroxypropoxy)-1,3-dimethyl-2,4-dioxo-1,2,3,4-tetrahydropyrimidine-5-carboxamide]: the IC50 was at most 500 nM.

On to `Cn1c(Nc2cc(F)c(I)cc2F)c(C(=O)NOC[C@H](O)CO)c(=O)n(C)c1=O` [Example 40, (R)-6-(2,5-Difluoro-4-iodophenylamino)-N-(2,3-dihydroxypropoxy)-1,3-dimethyl-2,4-dioxo-1,2,3,4-tetrahydropyrimidine-5-carboxamide], for which the IC50 is above 25000 nM.

For the compound `CCc1cc(Nc2c(C(=O)NOCCO)c(=O)n(C)c(=O)n2C)ccc1I` [Example 41, 6-(3-Ethyl-4-iodophenylamino)-N-(2-hydroxyethoxy)-1,3-dimethyl-2,4-dioxo-1,2,3,4-tetrahydropyrimidine-5-carboxamide], the IC50 is above 25000 nM.

For `Cn1c(Nc2ccc(I)cc2F)c(C(=O)NCCN)c(=O)n(C)c1=O` [Example 42, N-(2-Aminoethyl)-6-(2-fluoro-4-iodophenylamino)-1,3-dimethyl-2,4-dioxo-1,2,3,4-tetrahydropyrimidine-5-carboxamide], the IC50 is 501 to 2500 nM.

With `Cn1c(Nc2ccc(I)cc2F)c(C(=O)N2CCNCC2)c(=O)n(C)c1=O` [Example 43, 6-(2-Fluoro-4-iodophenylamino)-1,3-dimethyl-5-(piperazine-1-carbonyl)pyrimidine-2,4(1H,3H)-dione], the IC50 was above 25000 nM.

For the compound `Cn1c(Nc2ccc(I)cc2F)c(C(=O)N2CCN(CCO)CC2)c(=O)n(C)c1=O` [Example 44, 6-(2-Fluoro-4-iodophenylamino)-5-(4-(2-hydroxyethyl)piperazine-1-carbonyl)-1,3-dimethylpyrimidine-2,4(1H,3H)-dione], the IC50 is above 25000 nM.

For `CN(C)NC(=O)c1c(Nc2ccc(I)cc2F)n(C)c(=O)n(C)c1=O` [Example 45, 6-(2-Fluoro-4-iodophenylamino)-N′,N′,1,3-tetramethyl-2,4-dioxo-1,2,3,4-tetrahydropyrimidine-5-carbohydrazide], the IC50 lay in the range of 501 to 2500 nM.

Regarding `CCn1c(=O)c(C(=O)NOCCO)c(Nc2ccc(I)cc2F)n(C)c1=O` [Example 48, 3-Ethyl-6-(2-fluoro-4-iodophenylamino)-N-(2-hydroxyethoxy)-1-methyl-2,4-dioxo-1,2,3,4-tetrahydropyrimidine-5-carboxamide], the IC50 was above 25000 nM.

On to `CCn1c(Nc2ccc(I)cc2F)c(C(=O)NOCCO)c(=O)n(C)c1=O` [Example 51, 1-Ethyl-6-(2-fluoro-4-iodophenylamino)-N-(2-hydroxyethoxy)-3-methyl-2,4-dioxo-1,2,3,4-tetrahydropyrimidine-5-carboxamide], for which the IC50 is above 25000 nM.

`Cn1c(=O)c(C(=O)NOC[C@H](O)CO)c(Nc2ccc(I)cc2F)n(CF)c1=O` [Example 54, (R)-N-(2,3-Dihydroxypropoxy)-6-(2-fluoro-4-iodophenylamino)-1-(fluoromethyl)-3-methyl-2,4-dioxo-1,2,3,4-tetrahydropyrimidine-5-carboxamide]: the IC50 lay in the range of 501 to 2500 nM.

Take `Cn1c(Nc2ccc(I)cc2F)c(C(=O)NCCO)c(=O)n(C)c1=O` [Example 55, 6-(2-Fluoro-4-iodophenylamino)-N-(2-hydroxyethyl)-1,3-dimethyl-2,4-dioxo-1,2,3,4-tetrahydropyrimidine-5-carboxamide]: the IC50 lay within 501 to 2500 nM.

Regarding `Cn1c(Nc2ccc(I)cc2F)c(C(=O)NOC[C@H](O)CCO)c(=O)n(C)c1=O` [Example 56, 6-(2-Fluoro-4-iodo-phenylamino)-1,3-dimethyl-2,4-dioxo-1,2,3,4-tetrahydropyrimidine-5-carboxylic acid ((R)-2,4-dihydroxy-butoxy)-amide], the concentration for half-maximal inhibition (IC50) was in the range of 501 to 2500 nM.

Consider `Cn1c(Nc2ccc(I)cc2F)c(C(=O)NOC[C@@H](O)CCO)c(=O)n(C)c1=O` [Example 57, 6-(2-Fluoro-4-iodo-phenylamino)-1,3-dimethyl-2,4-dioxo-1,2,3,4-tetrahydropyrimidine-5-carboxylic acid ((S)-2,4-dihydroxy-butoxy)-amide], for which the IC50 was at most 500 nM.

For the compound `Cn1c(Nc2ccc(I)cc2F)c(C(=O)N2CC(O)C2)c(=O)n(C)c1=O` [Example 58, 6-(2-Fluoro-4-iodo-phenylamino)-5-(3-hydroxy-azetidine-1-carbonyl)-1,3-dimethyl-1H-pyrimidine-2,4-dione], the IC50 was 2500 to 25000 nM.

For the origin of these results see patent US7696218B2, “Substituted 1,3-dialkyl-2,4-dioxo-6-(arylamino)-1,2,3,4-tetrahydropyrimidine-5-hydroxamic acid inhibitors of MAPK/ERK kinase” (Takeda San Diego, Inc., priority 2006, dated 2010).
